Test results from the supplement of paper PMC8671470.

Assays:
Conditions in all cases: 72 h
BV-173 [1] = system: BV-173
Summary of the method: (§1)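 Seeded in RPMI 1640 at densities within the linear growth range, fifteen myeloid leukaemia cell lines were dispensed into 384-well plates with acoustically pre-printed compounds spanning five tenfold doses from 1 to 10,000 nM, in duplicate. The plates were kept for 72 h at 37 °C in 5% CO2 before luminescent ATP viability was measured and normalised to vehicle and to a positive control at 10 µM. Curves were fitted with a four-parameter log-logistic model. The IC50 was taken from those curves.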

HEL [2] = system: HEL
Summary of the method: as §1

HL-60 [3] = system: HL-60
Summary of the method: as §1

K-562 = system: K-562
Summary of the method: as §1

KCL-22 [4] = system: KCL-22
Summary of the method: as §1

KG-1 [5] = system: KG-1
Summary of the method: as §1

KU-812 [6] = system: KU-812
Summary of the method: as §1

LAMA-84 [7] = system: LAMA-84
Summary of the method: as §1

ML-2 [8] = system: ML-2
Summary of the method: as §1

MOLM-13 [9] = system: MOLM-13
Summary of the method: as §1

MV4-11 [10] = system: MV4-11
Summary of the method: as §1

Mono-Mac-6 [11] = system: Mono-Mac-6
Summary of the method: as §1

NOMO-1 [12] = system: NOMO-1
Summary of the method: as §1

SHI-1 [13] = system: SHI-1
Summary of the method: as §1

THP-1 [14] = system: THP-1
Summary of the method: as §1

BV-173 [15] = experiment: cell viability (% survival relative to DMSO control, bortezomib = 0%); higher = less cytotoxic
Summary of the method: (§2)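 Fifteen myeloid leukaemia cell lines were exposed to compounds at 1, 10, 100, 1000 or 10000 nM in 384-well plates for 72 h at 37 °C and 5% CO2. Viability was read by CellTiter-Glo luminescence and normalised, with vehicle as 100% and a 10 µM positive control as 0%. Values are percent survival averaged over duplicates.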

HEL [16] = experiment: as above
Summary of the method: as §2

HL-60 [17] = experiment: as above
Summary of the method: as §2

KCL-22 [18] = experiment: as above
Summary of the method: as §2

KG-1 [19] = experiment: as above
Summary of the method: as §2

KU-812 [20] = experiment: as above
Summary of the method: as §2

LAMA-84 [21] = experiment: as above
Summary of the method: as §2

ML-2 [22] = experiment: as above
Summary of the method: as §2

MOLM-13 [23] = experiment: as above
Summary of the method: as §2

MV4-11 [24] = experiment: as above
Summary of the method: as §2

Mono-Mac-6 [25] = experiment: as above
Summary of the method: as §2

NOMO-1 [26] = experiment: as above
Summary of the method: as §2

SHI-1 [27] = experiment: as above
Summary of the method: as §2

THP-1 [28] = experiment: as above
Summary of the method: as §2

HL-60 [29] = experiment: area under dose-response curve (viability, 1 nM-10 uM) (fraction (0-1)); higher = more sensitive
Summary of the method: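 In 384-well plates, the full library was rescreened in duplicate on HL-60 cells in RPMI 1640 with 10% FBS, at 1–10,000 nM in five tenfold concentrations, for 72 h at 37 °C, 5% CO2. Each run also held DMSO or 100 nM of one of three metabolic inhibitors. Viability was measured by CellTiter-Glo and normalised to DMSO wells and to wells with proteasome inhibitor, present at 10 μM. Any area under the curve comes from four-parameter log-logistic fitting with drc and PharmacoGx.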

CCN(CC)CCCC(C)Nc1ccnc2cc(Cl)ccc12 (centres undefined) [Chloroquine]
Conditions | IC50 (cell viability) [µM]
BV-173 [1] | > 10
HEL [2] | > 10
HL-60 [3] | > 10
K-562 | > 10
KCL-22 [4] | > 10
KG-1 [5] | > 10
KU-812 [6] | > 10
LAMA-84 [7] | > 10
ML-2 [8] | > 10
MOLM-13 [9] | > 10
MV4-11 [10] | > 10
Mono-Mac-6 [11] | > 10
NOMO-1 [12] | > 10
SHI-1 [13] | > 10
THP-1 [14] | > 10

Conditions | area under dose-response curve, co-treatment: AZD3965 100 nM | area under dose-response curve, co-treatment: DMSO vehicle | area under dose-response curve, co-treatment: GSK2194069 100 nM | area under dose-response curve, co-treatment: pictilisib 100 nM | cell viability, 1 nM [%] | cell viability, 10 nM [%] | cell viability, 100 nM [%] | cell viability, 1000 nM [%] | cell viability, 10000 nM [%]
BV-173 [15] | – | – | – | – | 111 | 89.5 | 111 | 97.1 | 85.2
HEL [16] | – | – | – | – | 95.4 | 94.5 | 89.6 | 97.6 | 104
HL-60 [17] | – | – | – | – | 101 | 79.8 | 97.1 | 101 | 76.4
HL-60 [29] | < 0.0301 | < 0.0301 | < 0.0301 | < 0.0301 | – | – | – | – | –
KCL-22 [18] | – | – | – | – | 95.6 | 106 | 100 | 95.7 | 102
KG-1 [19] | – | – | – | – | 112 | 101 | 89.7 | 102 | 88.1
KU-812 [20] | – | – | – | – | 109 | 97.8 | 102 | 98.1 | 96.9
LAMA-84 [21] | – | – | – | – | 105 | 101 | 101 | 101 | 99.1
ML-2 [22] | – | – | – | – | 108 | 98.7 | 97 | 100 | 94
MOLM-13 [23] | – | – | – | – | 103 | 81.8 | 112 | 107 | 101
MV4-11 [24] | – | – | – | – | 108 | 93.7 | 105 | 104 | 90.5
Mono-Mac-6 [25] | – | – | – | – | 105 | 94.9 | 104 | 93.4 | 92.1
NOMO-1 [26] | – | – | – | – | 110 | 99.3 | 97.9 | 96.2 | 93.7
SHI-1 [27] | – | – | – | – | 108 | 106 | 96.6 | 89.8 | 92
THP-1 [28] | – | – | – | – | 108 | 101 | 101 | 98.7 | 98.5
